Experiment: Inhibition of [3H]nitrendipine binding to L-type calcium channel in guinea pig ventricular myocardium membranes

| Compound | Kd [nM] |
| --- | --- |
| CCOC(=O)C1C(C)=NC(SC)=NC1c1cccc([N+](=O)[O-])c1 (configuration not stated) | 23 |

Experiment: as above
Remark: another data set of the same source

| Compound | Kd [nM] |
| --- | --- |
| CSC1=NC(c2cccc([N+](=O)[O-])c2)C(C(=O)OC(C)C)=C(C)N1 (configuration not stated) | 12 |
| CCOC(=O)C1=C(C)NC(SC)=NC1c1ccccc1C(F)(F)F (configuration not stated) | 35 |
| CCOC(=O)C1=C(C)N=C(OC)NC1c1cccc([N+](=O)[O-])c1 (configuration not stated) | 105 |
| CCOC(=O)C1=C(C)NC(N(C)C)=NC1c1cccc([N+](=O)[O-])c1 (configuration not stated) | 3400 |
| COC(=O)C1=C(C)N=C(SC)NC1c1cccc([N+](=O)[O-])c1 (configuration not stated) | 120 |
| CCC(C)OC(=O)C1=C(C)NC(SC)=NC1c1cccc([N+](=O)[O-])c1 (configuration not stated) | 2.6 |
